Experimental data: patent US20130331442A1, “Combination Therapy for Cancer” (FINVECTOR VISION THERAPIES LTD, priority 2011, published 2013)
“Also recorded” adds a separate entry of the source.

Columns and labels:
[1] = WBC and platelet counts in rats; assay type: in vivo, rat
BT4C cell line = assay: in vitro cytotoxicity of TMZ on BT4C cell line; assay type: cell-based
Excerpt: However, both in vitro and in vivo experiments there were no effect with TMZ therapy alone, implicating that other mechanism of resistance are in operation.
The efficacy of TMZ is known to be affected by different DNA repair activities (Kaina, 2003; Kaina et al., 2007; Parkinson et al., 2008; Takagi et al., 2003; Takagi et al., 2008) and by the presence of functional p53 activity (Blough et al. (2010) J Neurooncol.).

rat glioma model = conditions: TMZ therapy alone, in vivo experiments
Protocol: A study was conducted concerning tumour growth rate in a rat glioma model.

SMILES	WBC counts [1]	platelet counts [1]	cytotoxicity (BT4C cell line; BT4C cells first treated with AdHSV-tk/GCV, TMZ in high concentration)	effect of treatment in vitro (cytotoxicity) (BT4C cell line; BT4C cells, TMZ alone, up to 1000 μM)	effect of therapy in vivo (rat glioma model)
Nc1nc(O)c2ncn(COC(CO)CO)c2n1 [GCV, Ganciclovir]	did not reduce these values significantly	did not reduce these values significantly	–	–	–
Cn1nnc2c(C(N)=O)ncn2c1=O [TMZ, Temozolomide]	profound adverse effect	profound adverse effect	started to demonstrate cytotoxicity	no effect; also recorded: does not respond to the treatment	no effect
